Measurements from US10000771B2, “Nuclear targeting sequences” (Yeda Research and Development Co. Ltd., priority 2007, dated 2018).
Ends that are not written are not given here. 2GFP = dimer of GFP proteins

Legend:
endogenous ERKs = experiment: Effect of 2GFP chimeras on nuclear translocation of endogenous ERKs; assay type: cell-based; settings: CHO cells overexpressing the chimera, TPA 250 nM, 15 min
Description: FIGS. 10A-10X illustrate the effects of the 2GFP chimeras on the nuclear translocation of endogenous ERKs. CHO cells overexpressing 2GFP, 2GFP-SPS, 2GFP-APA and 2GFP-EPE were serum starved and treated with or without TPA (250 nM, 15 min). Subsequently, the cells were fixed and stain with anti-ERK2 (C-14) Ab and with DAPI.
Immunofluorescence Microscopy. Cells were fixed (30 min in 3% paraformaldehyde in PBS or 10 min with ice-cold methanol), followed by 5-min permeabilization with 0.2% Triton X-100 in PBS (23° C.). The fixed cells were sequentially incubated with the appropriate Abs (45 min) followed by rhodamine-conjugated secondary Abs (45 min) and DAPI. Slides were visualized using a fluorescence microscope (Nikon, Japan) at 400× magnifications.

COS7 cells = experiment: Subcellular fractionation of GFP-ERK2 constructs; assay type: cell-based; settings: 48 hr after transfection, serum-starved
Description: FIG. 6 is an autoradiograph illustrating the subcellular fractionation of WT-GFP-ERK2 (WT), APA-GFP-ERK2 (APA), or EPE-GFP-ERK2 (EPE). COS7 cells were grown in 10 cm plates and transfected with the above ERK2 constructs. Twenty-four hr after transfection the cells were serum-starved for 16 hr and subjected to cellular fractionation as described under materials and Methods. Western blot analysis of aliquots of the fractions were stained with anti GFP Ab to detect the ERK2 and its mutant, and with anti tubulin and anti c-Jun Abs as markers for the cytoplasmic and nuclear fractions respectively.
Cellular Fractionation: Transfected COS7 cells were starved (0.1% FBS) for 16 h, after which they were washed with ice-cold PBS, suspended in ice-cold buffer H, and centrifuged (12,000×g, 5 min). Then, the nuclear and cytosolic fractions were isolated as described [H. Rubinfeld, T. Hanoch, R. Seger, J. Biol. Chem. 274, 30349 (1999)]. Briefly, the pellets were suspended in 0.1% NP-40 followed by centrifugation (12,000×g, 5 min). The supernatant, containing the cytosolic fraction, was boiled in sample buffer. The pellet was suspended in extraction buffer (420 mM Nacl, 50 mM β-glycerophosphate, 0.5 mM Na3VO4, 1.5 mM MgCl2, 0.2 mM EDTA, 1 mM DTT, 25% glycerol), incubate on ice for 10 min, sonicated (50 W, 2×7 sec), and centrifuged (12,000×g, 5 min). […]

Nup153c = experiment: Interaction with recombinant His-Nup153c; assay type: binding; settings: immunoprecipitated ERK2 incubated with 0.5 μg recombinant His-Nup153c
Description: FIGS. 19A-19C are autoradiographs illustrating that phospho-SPS interacts with importin-7 and releases Nup153c binding without involvment of importin-β. […]. Interaction of ERK2 with Importin-7 is enhanced by EGF stimulation and EPE mutation. HeLa cells overexpressing WT-ERK (WT), ERK-APA (APA), ERK-EPE (EPE) or GFP were serum starved and treated with EGF (50 ng/ml, 10 min). The extracts of the treated cells were then subjected to coimmunoprecipitation using A/G beads pre-conjugated with anti GFP Ab and mild washes. The coimmunoprecipitated importin-7 (first panel) and importin-β (third panel), as well as their loading amounts (panels 2 and 4 respectively) were determined by WB using anti importin-7 (αImp7) and importin-β (αImpβ) Abs. The equal amount of immunoprecipitated ERKs was determined with anti GFP (αGFP; IP) Ab. FIG. 19B. Interaction of 2GFP-SPS and its mutants with importin-7. HeLa cells overexpressing 2GFP, 2GFP-SPS, 2GFP-APA and 2GFP-EPE constructs were subjected to coimmunoprecipitation as described in FIG. 19A (without EGF stimulation). FIG. 19C. Interaction of NUP153 with WTERK2 and its APA and EPE mutants. NUP153c is elevated in APA-ERK2, but reduced in EPE-ERK2. Immunoprecipitated and stringently washed WT-ERK2 (WT), APA-ERK2 (APA) or ERK2 from […] cells pre-treated with or without TPA (250 nM, 15 min) were incubated with 0.5 μg recombinant His-Nup153c. […]

Row | Substance | inhibition of TPA-induced translocation of endogenous ERKs (endogenous ERKs) | localized in the nucleus (COS7 cells) | interaction with Nup153 (Nup153c)
1 | 2GFP-SPS: 2GFP with the 19 amino acid stretch containing the SPS of ERK2 (SEQ ID NO: 6) fused to its C terminus (2GFP-LDQLNHILGILGSPSQEDL) | inhibited |  | 
2 | WT-ERK2: wild-type ERK2 fused to GFP, prepared in pEGFP C1 [reference compound] |  | about 75% | interacts with Nup153
